Measurements from ChEMBL document CHEMBL5143606, “Selective Wee1 degradation by PROTAC degraders recruiting VHL and CRBN E3 ubiquitin ligases” (Bioorg Med Chem Lett, 2022).
Activity calls are given as the source filed them. No cut-off for these calls is given here.

Experiments:
[1] = target: T1, von Hippel-Lindau disease tumor suppressor/Wee1-like protein kinase (Homo sapiens) (UniProt P30291+P40337); test: PROTAC activity at VHL/Wee1 in human HeLa S3 cells assessed as induction of Wee1 degradation at 1 uM measured after 24 hrs by Western blot analysis relative to control; type: cell-based
[2] = target: T1, von Hippel-Lindau disease tumor suppressor/Wee1-like protein kinase (Homo sapiens); test: PROTAC activity at VHL/Wee1 in human HeLa S3 cells assessed as induction of Wee1 degradation by measuring reduction in phosphorylation of CDK1 at Tyr15 residue at higher concentration measured after 4 hrs by Western blot analysis; type: cell-based
[3] = target: T1, von Hippel-Lindau disease tumor suppressor/Wee1-like protein kinase (Homo sapiens); test: PROTAC activity at VHL/Wee1 in human HeLa S3 cells assessed as induction of Wee1 degradation by measuring reduction in phosphorylation of CDK1 at Tyr15 residue at 1 uM measured after 24 hrs by Western blot analysis relative to control; type: cell-based; design: scale not given: the % may be the effect or the level left
[4] = target: T2, Protein cereblon/Wee1-like protein kinase (Homo sapiens) (UniProt P30291+Q96SW2); test: PROTAC activity at CRBN/Wee1 in human HeLa S3 cells assessed as induction of Wee1 degradation by measuring reduction in phosphorylation of CDK1 at Tyr15 residue at 1 uM measured after 24 hrs by Western blot analysis relative to control; type: cell-based; design: scale not given: the % may be the effect or the level left
[5] = target: T2, Protein cereblon/Wee1-like protein kinase (Homo sapiens); test: PROTAC activity at CRBN/Wee1 in human HeLa S3 cells assessed as induction of Wee1 degradation at 1 uM measured after 24 hrs by Western blot analysis relative to control; type: cell-based
[6] = target: T2, Protein cereblon/Wee1-like protein kinase (Homo sapiens); test: PROTAC activity at CRBN/Wee1 in human HeLa S3 cells assessed as induction of Wee1 degradation at 1 uM measured after 4 hrs by Western blot analysis; type: cell-based
PC-3 = test: Antiproliferative activity against human PC-3 cells assessed as inhibition of cell growth measured after 72 hrs by MTS assay; type: functional, cell-based; details: PC-3, 72 h
[7] = target: T2, Protein cereblon/Wee1-like protein kinase (Homo sapiens); test: PROTAC activity at CRBN/Wee1 in human HeLa S3 cells assessed as induction of Wee1 degradation by measuring reduction in phosphorylation of CDK1 at Tyr15 at above 1 uM measured after 24 to 48 hrs by Western blot analysis; type: cell-based; details: time 24-48 hrs
MCF7 = test: Antiproliferative activity against human MCF7 cells assessed as inhibition of cell growth measured after 72 hrs by MTS assay; type: functional, cell-based; details: MCF7, 72 h
LNCaP = test: Antiproliferative activity against human LNCaP cells assessed as inhibition of cell growth measured after 72 hrs by MTS assay; type: functional, cell-based
BT-549 = test: Antiproliferative activity against human BT-549 cells assessed as inhibition of cell growth measured after 72 hrs by MTS assay; type: functional, cell-based; details: BT-549, 72 h
[8] = target: T2, Protein cereblon/Wee1-like protein kinase (Homo sapiens); test: PROTAC activity at CRBN/Wee1 in human HeLa S3 cells assessed as induction of Wee1 degradation by measuring reduction in phosphorylation of CDK1 at Tyr15 residue at 100 to 10000 nM measured after 4 hrs by Western blot analysis; type: cell-based; details: dose 100-10000 nM
[9] = target: T2, Protein cereblon/Wee1-like protein kinase (Homo sapiens); test: PROTAC activity at CRBN/Wee1 in human HeLa S3 cells assessed as induction of Wee1 degradation at 30 to 10000 nM measured after 4 hrs by Western blot analysis; type: cell-based; details: dose 30-10000 nM
[10] = target: T1, von Hippel-Lindau disease tumor suppressor/Wee1-like protein kinase (Homo sapiens); test: PROTAC activity at VHL/Wee1 in human HeLa S3 cells assessed as induction of Wee1 degradation at 1 uM measured after 4 hrs by Western blot analysis; type: cell-based
[11] = target: T1, von Hippel-Lindau disease tumor suppressor/Wee1-like protein kinase (Homo sapiens); test: PROTAC activity at VHL/Wee1 in human HeLa S3 cells assessed as induction of Wee1 degradation by measuring reduction in CDK1 phosphorylation at Tyr15 residue at above 1 uM measured after 24 to 48 hrs by Western blot analysis; type: cell-based; details: time 24-48 hrs
[12] = target: T1, von Hippel-Lindau disease tumor suppressor/Wee1-like protein kinase (Homo sapiens); test: PROTAC activity at VHL/Wee1 in human HeLa S3 cells assessed as induction of Wee1 degradation at 1 uM measured after 24 to 48 hrs by Western blot analysis; type: cell-based; details: time 24-48 hrs

SMILES: C=CCn1c(=O)c2cnc(Nc3ccc(N4CCN(CCCC(=O)NCCCCCCCC(=O)N[C@H](C(=O)N5C[C@H](O)C[C@H]5C(=O)NCc5ccc(-c6scnc6C)cc5)C(C)(C)C)CC4)cc3)nc2n1-c1cccc(C(C)(C)O)n1
- Activity [1]: 68%
- Activity [2]: Active
- Activity [3]: 53%

SMILES: C=CCn1c(=O)c2cnc(Nc3ccc(N4CCN(CCCC(=O)NCCOCCOCC(=O)NCCNc5cccc6c5C(=O)N(C5CCC(=O)NC5=O)C6=O)CC4)cc3)nc2n1-c1cccc(C(C)(C)O)n1 (configuration not stated)
- Activity [4]: 80%
- Activity [5]: 81%
- Activity [6]: Active

SMILES: C=CCn1c(=O)c2cnc(Nc3ccc(N4CCN(CCCC(=O)NCCOCCOCCNc5cccc6c5C(=O)N(C5CCC(=O)N(C)C5=O)C6=O)CC4)cc3)nc2n1-c1cccc(C(C)(C)O)n1 (configuration not stated)
- IC50 (PC-3): > 20 µM
- Activity [7]: Active
- IC50 (MCF7): 11 µM
- IC50 (LNCaP): 11 µM
- IC50 (BT-549): 9000 nM

SMILES: C=CCn1c(=O)c2cnc(Nc3ccc(N4CCN(CCCC(=O)NCCCC(=O)N[C@H](C(=O)N5C[C@H](O)C[C@H]5C(=O)NCc5ccc(-c6scnc6C)cc5)C(C)(C)C)CC4)cc3)nc2n1-c1cccc(C(C)(C)O)n1
- Activity [1]: 68%
- Activity [2]: Active
- Activity [3]: 55%

SMILES: C=CCn1c(=O)c2cnc(Nc3ccc(N4CCN(CCCC(=O)NCCCCCCNc5cccc6c5C(=O)N(C5CCC(=O)NC5=O)C6=O)CC4)cc3)nc2n1-c1cccc(C(C)(C)O)n1 (configuration not stated)
- Activity [4]: 39%
- Activity [8]: Active
- Activity [5]: 23%
- Activity [9]: Active

SMILES: C=CCn1c(=O)c2cnc(Nc3ccc(N4CCN(CCCC(=O)NCCNc5cccc6c5C(=O)N(C5CCC(=O)NC5=O)C6=O)CC4)cc3)nc2n1-c1cccc(C(C)(C)O)n1 (configuration not stated)
- Activity [4]: 38%
- Activity [5]: 21%
- Activity [9]: Active

SMILES: C=CCn1c(=O)c2cnc(Nc3ccc(N4CCN(CCCC(=O)NCCOCCOCCOCCNc5cccc6c5C(=O)N(C5CCC(=O)NC5=O)C6=O)CC4)cc3)nc2n1-c1cccc(C(C)(C)O)n1 (configuration not stated)
- Activity [4]: 66%
- Activity [5]: 59%

SMILES: C=CCn1c(=O)c2cnc(Nc3ccc(N4CCN(CCCC(=O)NCCOCCNc5cccc6c5C(=O)N(C5CCC(=O)NC5=O)C6=O)CC4)cc3)nc2n1-c1cccc(C(C)(C)O)n1 (configuration not stated)
- Activity [4]: 41%
- Activity [8]: Active
- Activity [5]: 38%
- Activity [9]: Active

SMILES: C=CCn1c(=O)c2cnc(Nc3ccc(N4CCN(CCCC(=O)NCCCCCCCCCCC(=O)NCCNc5cccc6c5C(=O)N(C5CCC(=O)NC5=O)C6=O)CC4)cc3)nc2n1-c1cccc(C(C)(C)O)n1 (configuration not stated)
- Activity [4]: 41%
- Activity [5]: 41%

SMILES: C=CCn1c(=O)c2cnc(Nc3ccc(N4CCN(CCCC(=O)NCCCCCC(=O)N[C@H](C(=O)N5C[C@H](O)C[C@H]5C(=O)NCc5ccc(-c6scnc6C)cc5)C(C)(C)C)CC4)cc3)nc2n1-c1cccc(C(C)(C)O)n1
- Activity [1]: 71%
- Activity [2]: Active
- Activity [3]: 64%

SMILES: C=CCn1c(=O)c2cnc(Nc3ccc(N4CCN(CCCC(=O)NCCCC(=O)NCCNc5cccc6c5C(=O)N(C5CCC(=O)NC5=O)C6=O)CC4)cc3)nc2n1-c1cccc(C(C)(C)O)n1 (configuration not stated)
- Activity [4]: 60%
- Activity [5]: 47%

SMILES: C=CCn1c(=O)c2cnc(Nc3ccc(N4CCN(CCCC(=O)NCCOCCOCCOCC(=O)NCCNc5cccc6c5C(=O)N(C5CCC(=O)NC5=O)C6=O)CC4)cc3)nc2n1-c1cccc(C(C)(C)O)n1 (configuration not stated)
- Activity [4]: 84%
- Activity [5]: 96%

SMILES: C=CCn1c(=O)c2cnc(Nc3ccc(N4CCN(CCCC(=O)NCCOCCOCCOCCOCCC(=O)N[C@H](C(=O)N5C[C@H](O)C[C@H]5C(=O)NCc5ccc(-c6scnc6C)cc5)C(C)(C)C)CC4)cc3)nc2n1-c1cccc(C(C)(C)O)n1
- Activity [1]: 108%
- Activity [3]: 80%
- Activity [10]: Active

SMILES: C=CCn1c(=O)c2cnc(Nc3ccc(N4CCN(CCCC(=O)NCCCCCCCC(=O)NCCNc5cccc6c5C(=O)N(C5CCC(=O)NC5=O)C6=O)CC4)cc3)nc2n1-c1cccc(C(C)(C)O)n1 (configuration not stated)
- Activity [4]: 88%
- Activity [5]: 83%

SMILES: C=CCn1c(=O)c2cnc(Nc3ccc(N4CCN(CCCC(=O)NCCOCCOCCOCCOCCNc5cccc6c5C(=O)N(C5CCC(=O)NC5=O)C6=O)CC4)cc3)nc2n1-c1cccc(C(C)(C)O)n1 (configuration not stated)
- Activity [4]: 65%
- Activity [5]: 45%

SMILES: C=CCn1c(=O)c2cnc(Nc3ccc(N4CCN(CCCC(=O)NCCOCCOCCOCC(=O)N[C@H](C(=O)N5C[C@H](O)C[C@H]5C(=O)NCc5ccc(-c6scnc6C)cc5)C(C)(C)C)CC4)cc3)nc2n1-c1cccc(C(C)(C)O)n1
- Activity [1]: 94%
- Activity [3]: 72%

SMILES: C=CCn1c(=O)c2cnc(Nc3ccc(N4CCN(CCCC(=O)N[C@H](C(=O)N5C[C@@H](O)C[C@H]5C(=O)NCc5ccc(-c6scnc6C)cc5)C(C)(C)C)CC4)cc3)nc2n1-c1cccc(C(C)(C)O)n1
- IC50 (PC-3): 8.7 µM
- Activity [11]: Active
- IC50 (MCF7): 3.3 µM
- IC50 (LNCaP): 3.46 µM
- IC50 (BT-549): 1700 nM
- Activity [12]: Active

SMILES: C=CCn1c(=O)c2cnc(Nc3ccc(N4CCN(CCCC(=O)NCCOCCOCCOCCOCCOCCNc5cccc6c5C(=O)N(C5CCC(=O)NC5=O)C6=O)CC4)cc3)nc2n1-c1cccc(C(C)(C)O)n1 (configuration not stated)
- Activity [4]: 78%
- Activity [5]: 51%

SMILES: C=CCn1c(=O)c2cnc(Nc3ccc(N4CCN(CCCC(=O)NCCCCCC(=O)NCCNc5cccc6c5C(=O)N(C5CCC(=O)NC5=O)C6=O)CC4)cc3)nc2n1-c1cccc(C(C)(C)O)n1 (configuration not stated)
- Activity [4]: 54%
- Activity [5]: 75%

SMILES: C=CCn1c(=O)c2cnc(Nc3ccc(N4CCN(C)CC4)cc3)nc2n1-c1cccc(C(C)(C)O)n1 [ADAVOSERTIB]
- IC50 (PC-3): 8 µM
- IC50 (MCF7): 1.1 µM
- IC50 (LNCaP): 0.5 µM
- IC50 (BT-549): 490 nM

SMILES: C=CCn1c(=O)c2cnc(Nc3ccc(N4CCN(CCCC(=O)NCCCCCCCCCCC(=O)N[C@H](C(=O)N5C[C@H](O)C[C@H]5C(=O)NCc5ccc(-c6scnc6C)cc5)C(C)(C)C)CC4)cc3)nc2n1-c1cccc(C(C)(C)O)n1
- Activity [1]: 50%
- Activity [2]: Active
- Activity [3]: 47%
